Assay results: patent US20220175761A1, “BI-LIGAND DRUG CONJUGATE AND USE THEREOF” (COHERENT BIOPHARMA (SUZHOU), LIMITED, priority 2019, published 2022)
Square brackets hold non-standard residues; d marks the D form. Peptide text beside a SMILES is read from it. * marks the point of attachment. Dolaproine = CO[C@@H]([C@@H]1CCCN1)[C@@H](C)C(=O)O; Dil = CC[C@H](C)[C@H](NC)[C@@H](CC(=O)O)OC; X1 = C[C@@H](N*)[C@@H](O)c1ccccc1; NMeV = CN[C@H](C(=O)O)C(C)C

How the values were obtained:
[1] = tested on: KB, T-47D, NCI-H460, CALU-3, HuH-7, and LNCaP tumor cell lines; experiment: Inhibition of tumor cell expansion, CCK8 (CB-20BK); type: cell-based, human
Experimental: Cell lines: KB human oral epidermoid carcinoma cells, T-47D human breast cancer cells, NCI-H460 human lung cancer cells, CALU-3 human lung adenocarcinoma cells, HuH-7 human liver cancer cells and LNCaP human prostate cancer cells
The cells were prepared in advance, digested with trypsin, collected and counted; with a complete cell culture medium, KB cells were diluted to 2.5×10^4 cells/ml, T-47D cells were diluted to 1.3×10^4 cells/ml, NCI-H460 cells were diluted to 3.5×10^4 cells/ml, CALU-3 cells were diluted to 4.0×10^4 cells/ml, HuH-7 cells were diluted to 3.0×10^4 cells/ml, and LNCaP cells were diluted to 8.0×10^4 cells/ml; 100 μl of the diluted cell solution was added to each well of 96-well plates; and negative control and blank control wells were set on each plate. The 96-well plates added with the cells were placed in an incubator at 37° C., 5% CO2 for culturing overnight.
The samples were diluted with a culture medium to desired concentrations (see Table 8). […]
To each well, 15 μl (10% of the liquid volume in a well) of a color developing solution from CCK-8 was added; the plates were incubated at 37° C. for an appropriate time (try to keep the OD value in the range of 1.0-2.0); the covers of the 96-well plates were removed, and the plates were read at 450 nm on a microplate reader (Molecular Devices Spectra MAX Plus). […]

[2] = tested on: LU0367; experiment: Tumor growth inhibition in HuPrime xenograft lung cancer PDX model; type: in vivo, BALB/c-nude mice; details: 3 mg/kg, tail vein
Experimental: (§1) Experimental scheme: The tumor tissue mass were prepared and subcutaneously inoculated into the anterior right flank of BALB/c-nude mice. When the tumor volume expanded to 80-160 mm^3, a randomized grouping was performed, and a model control group and administration groups were set. The mice were administrated from the first day of grouping, wherein the administration dose was adjusted according to the latest weight measurement. The mice were administrated via tail vein injection at an administration volume of 10 μl/g and an administration dosage of 3 mg/kg. After grouping and administration, the effects of tumor growth and treatment on normal behaviors of animals, specifically including the activity of experimental animals, food intake and drinking status, weight gain or loss status, and other abnormal conditions in eyes, hair, etc., were monitored. After grouping and administration, the weight of mice was measured twice a week to calculate the rate of weight change; at the same time, the long diameter and short diameter of the tumor were measured with a vernier caliper, and the tumor volume, relative tumor proliferation rate, tumor volume inhibition rate and other indicators were calculated. The formula of tumor volume is TV=0.5 a×b^2, wherein a is the long diameter of a tumor and b is the short diameter of a tumor.

[3] = tested on: LU1206; experiment: as above; type: in vivo, BALB/c-nude mice; details: 3 mg/kg, tail vein
Experimental: as §1

[4] = tested on: LU1380; experiment: as above; type: in vivo, BALB/c-nude mice; details: 3 mg/kg, tail vein
Experimental: as §1

[5] = tested on: BR0438; experiment: Tumor growth inhibition in HuPrime xenograft breast cancer PDX model; type: in vivo, BALB/c-nude mice; details: 3 mg/kg, tail vein
Experimental: as §1

[6] = tested on: BR1283; experiment: as above; type: in vivo, BALB/c-nude mice; details: 3 mg/kg, tail vein
Experimental: as §1

[7] = target: T1, FOLR1 (Homo sapiens, UniProt P15328); experiment: BIAcore T200 binding affinity to FOLR1 (CM5 chip conjugated with FOLR1)
T1 construct: purchased R&D System 5646-FR
T1 sequence (P15328 25-233 limits assumed): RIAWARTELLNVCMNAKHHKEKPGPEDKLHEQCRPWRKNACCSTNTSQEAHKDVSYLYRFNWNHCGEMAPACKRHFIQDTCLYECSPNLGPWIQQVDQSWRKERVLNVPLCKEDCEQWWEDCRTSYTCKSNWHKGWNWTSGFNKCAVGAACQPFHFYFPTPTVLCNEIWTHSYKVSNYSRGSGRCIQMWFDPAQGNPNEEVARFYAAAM
From the text: Buffer: HBS-EP+ buffer 10× (GE, Cat #: BR100669), diluted 10 folds with deionized water before use.
In the experiment, CM5 chip was conjugated with ligand FOLR1 (R&D System, Cat #: 5646-FR).

[8] = Body weight and clinical observation in the LU1206 study; details: 0.375 mg/kg on day 1, 8, 15
Experimental: BALB/c nude mice bore tumors subcutaneously and, when the tumor volume reached about 150 mm^3, were grouped into: low-dose, medium-dose and high-dose test sample groups, a small molecule MMAE control group, a targeting polypeptide 20BK-SM09 control group, and a blank control group (a total of 6 groups, and 8 mice per group); the mice were administered on day 1, day 8 and day 15 after the grouping; and the observation was continued for 14 days after the last administration.

[9] = tested on: SK-BR-3 (human breast cancer cells); experiment: Inhibition of cell line proliferation, CCK8; type: cell-based; details: SK-BR-3, 68-72 hours, CCK8
Experimental: Experimental operations: LNCaP, SK-BR-3, NCI-H226, CFPAC-1 and PANC-1 cells were prepared in advance and counted; with a culture medium (IMDM+10% FBS+1× L-Glutamine+1×P/S), the cells LNCaP, SK-BR-3 and CFPAC-1 were diluted to 4×10^4 cells/ml, NCI-H226 was diluted to 2.0×10^4 cells/ml and PANC-1 was diluted to 3.0×10^4 cells/ml; the diluted cell solution was plated in 96-well plates at 100 μl/well; and negative control and blank control wells were set on each plate. After adherent cell culture overnight, the diluted samples to be tested were added at 50 μl/well. The plates were placed in an incubator at 37° C., 5% CO2 and cultured for 68-72 hours. To each well, 15 μl (10% of the liquid volume in a well) of a color developing solution from CCK8 was added; and the plates were incubated at 37° C. for 45-70 minutes and each plate was read at 450 nm on a microplate reader. The data was edited using SoftMax Pro and a 4-P fitting curve was plotted.
Experimental Operations: LNCaP, SK-BR-3, MDA-MB-468 and CFPAC-1 cells were prepared in advance and counted; with a culture medium (IMDM+10% FBS+1× L-Glutamine+1×P/S), the cells LNCaP, SK-BR-3, MDA-MB-468 and CFPAC-1 were diluted to 4×10^4 cells/ml; the diluted cell solution was plated in 96-well plates at 100 µl/well; and negative control and blank control wells were set on each plate. After adherent cell culture overnight, the diluted samples to be tested were added at 50 μl/well. The plates were placed in an incubator at 37° C., 5% CO2 and cultured for 68-72 hours. To each well, 15 μl (10% of the liquid volume in a well) of a color developing solution from CCK8 was added; and the plates were incubated at 37° C. for 45-70 minutes and each plate was read at 450 nm on a microplate reader. The data was edited using SoftMax Pro and a 4-P fitting curve was plotted.

[10] = FOLR1 on CM5 chip, N/D = no specific binding was detected

| Structure (SMILES) | inhibitory effect on growth and expansion of tumor cell lines ([1]; 72 hours, CCK-8) | IC50 compared between cell lines ([1]; T-47D, KB, LNCaP, HuH-7 and CALU-3 versus NCI-H460) | TGI [2] [%] | TGI [3] [%] | TGI [4] [%] | TGI [5] [%] | TGI [6] [%] | specific binding to FOLR1 (in words) ([7]; BIAcore T200) | Kd [7, 10] [nM] | kd [7, 10] [s⁻¹] | kon ([7]; FOLR1 on CM5 chip, N/D = no specific binding was detected, read-out: ka) [M⁻¹ s⁻¹] | Weight [8] [g] | IC50 [9] [nM] |
| --- | --- | --- | --- | --- | --- | --- | --- | --- | --- | --- | --- | --- | --- |
| CC[C@H](C)[C@@H]([C@@H](CC(=O)N1CCC[C@H]1[C@H](OC)[C@@H](C)C(=O)N[C@H](C)[C@@H](O)c1ccccc1)OC)N(C)C(=O)[C@@H](NC(=O)[C@H](C(C)C)N(C)C(=O)OCc1ccc(NC(=O)C(CCCNC(N)=O)NC(=O)[C@@H](NC(=O)CCCCCN2C(=O)CC(SC[C@H](NC(=O)[C@H](CCCCN)NC(=O)[C@H](CC(=O)O)NC(=O)[C@H](CC(=O)O)NC(=O)Cc3ccc(CNC(=O)NCCCC[C@H](NC(=O)N[C@@H](CCC(=O)O)C(=O)O)C(=O)O)cc3)C(=O)N[C@@H](CCCCNC(=O)CC[C@H](NC(=O)c3ccc(NCc4cnc5[nH]c(N)nc(=O)c5n4)cc3)C(=O)O)C(N)=O)C2=O)C(C)C)cc1)C(C)C (stereo partly shown) [CB-20BK] | has an inhibitory effect | significantly lower | 71.34 | 90.89 | 30.02 | 70.74 | 96.49 | specifically binds to FOLR1 with a good affinity | 0.127 | 0.000131 | 1.03e+06 |  |  |
| CC[C@H](C)[C@@H]([C@@H](CC(=O)N1CCC[C@H]1[C@H](OC)[C@@H](C)C(=O)N[C@H](C)[C@@H](O)c1ccccc1)OC)N(C)C(=O)[C@@H](NC(=O)[C@@H](NC)C(C)C)C(C)C [MMAE, monomethyl auristatin E] (H-[NMeV]V[Dil][Dolaproine]-X1) |  |  |  |  |  |  |  |  |  |  |  | 23.6 | 2 |
